Starred links: 1 amine or outer side, 2 acyl side, 3 side chain; linkers in the order of their positions; H or OH if unused. Non-standard residues stand in square brackets, D forms with d. Residues, ends and D or L forms follow the SMILES beside them. *: point of attachment. Pipz(1-CH2CO,4-CH2CH2NH) = O=C(CN1CCN(CCN[*:1])CC1)[*:2]; γGlu = O=C(O)[C@H](CCC(=O)[*:2])N[*:1]; Stearoyl = CCCCCCCCCCCCCCCCCC(=O)*; X1 = CN(CC(=O)C(=O)[*:2])[*:1]; NMeL = CN[C@@H](CC(C)C)C(=O)O; Nle = CCCC[C@H](N)C(=O)O; Orn = NCCC[C@H](N)C(=O)O; Sar = CNCC(=O)O
T1: human neuromedin U receptor 1 (human, UniProt Q9HB89 24-426)
T1 sequence (looked up): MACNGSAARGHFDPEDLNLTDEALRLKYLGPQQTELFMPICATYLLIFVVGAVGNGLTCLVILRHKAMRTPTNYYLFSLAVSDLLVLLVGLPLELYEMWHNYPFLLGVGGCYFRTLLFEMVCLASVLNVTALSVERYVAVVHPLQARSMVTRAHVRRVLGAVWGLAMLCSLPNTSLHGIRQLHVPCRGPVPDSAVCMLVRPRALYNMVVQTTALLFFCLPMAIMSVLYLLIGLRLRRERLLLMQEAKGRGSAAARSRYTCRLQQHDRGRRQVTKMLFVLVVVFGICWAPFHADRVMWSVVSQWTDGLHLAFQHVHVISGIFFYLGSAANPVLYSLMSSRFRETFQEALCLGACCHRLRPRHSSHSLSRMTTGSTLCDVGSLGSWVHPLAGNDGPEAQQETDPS

B1: C18A-gGlu3-Sar15-AEPipAc-Tyr-Phe-NMeLeu-Nle-Arg-Pro-Arg-Gly-NH2 (peptide)
peptide: EEEXXXXXXXXXXXXXXXXYFLXRPRG
HELM: PEPTIDE1{[CCCCCCCCCCCCCCCCCC(=O)[*:2]].[gGlu].[gGlu].[gGlu].[Sar].[Sar].[Sar].[Sar].[Sar].[Sar].[Sar].[Sar].[Sar].[Sar].[Sar].[Sar].[Sar].[Sar].[Sar].[O=C(CN1CCN(CCN[*:1])CC1)[*:2]].Y.F.[meL].[Nle].R.P.R.G.[am]}$$$$V2.0
SMILES: CCCCCCCCCCCCCCCCCC(=O)N[C@@H](CCC(=O)N[C@@H](CCC(=O)N[C@@H](CCC(=O)N(C)CC(=O)N(C)CC(=O)N(C)CC(=O)N(C)CC(=O)N(C)CC(=O)N(C)CC(=O)N(C)CC(=O)N(C)CC(=O)N(C)CC(=O)N(C)CC(=O)N(C)CC(=O)N(C)CC(=O)N(C)CC(=O)N(C)CC(=O)N(C)CC(=O)NCCN1CCN(CC(=O)N[C@@H](Cc2ccc(O)cc2)C(=O)N[C@@H](Cc2ccccc2)C(=O)N(C)[C@@H](CC(C)C)C(=O)N[C@@H](CCCC)C(=O)N[C@@H](CCCNC(=N)N)C(=O)N2CCC[C@H]2C(=O)N[C@@H](CCCNC(=N)N)C(=O)NCC(N)=O)CC1)C(=O)O)C(=O)O)C(=O)O

Assays:
[1] = in vivo; parameters: species or system NMRI mice; conditions: male, NMRI, mouse, iv
Procedure: Example 5: Pharmacokinetics Intravenous (iv) PK in Mouse Pharmacokinetic parameters of the test compounds were determined after intravenous administration to Naval Medical Research Institute (NMRI) mice. Male NMRI mice were obtained either from Charles River (Germany) or from Janvier (France) weighing approximately 30 g to 40 g. Mice were housed in standard cages with light cycle of 12-hour dark and 12-hour light. Standardized food and water were offered ad libitum to the animals during the whole experimental period. The respective peptide was dissolved in 50 mM phosphate buffer (pH 7.4) containing 3.5% mannitol. Intravenous doses of 30 nmol/kg were given via a tail vein. Serial blood samples were collected from the vena saphena into tubes containing EDTA as anticoagulant at different time points up to 48 hours post dosing. After centrifugation for approximately 5 minutes, plasma samples were transferred to 96-well Polymerase Chain Reaction (PCR) plates, immediately frozen and kept at approximately −20° C. until analyzed for plasma concentration by liquid chromatography mass spectrometry (LC-MS/MS). Individual plasma concentration-time profiles were analyzed by a non-compartmental approach, and the resulting pharmacokinetic parameters were determined.

[2] = target: human NMUR2 receptor (Homo sapiens, UniProt Q9GZQ4); test: IP1 Gq HTRF assay, activation of human NMUR2 in buffer; type: cell-based; parameters: expressed in transfected cells; host or cells: CHO-K1; conditions: selectivity for NMUR2 over NMUR1 from IP1 assay in buffer (Example 3)
In short: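 CHO-K1 cells stably expressing human NMUR1 or NMUR2, seeded 24 h before assay, stimulated with peptide agonists (8-point dose-response, 1% DMSO final) in HEPES/HBSS buffer with 50 mM LiCl and 0.1% BSA, pH 7.4, 1 h at 37 °C. IP1 accumulation read by HTRF competition (665/620 nm); EC50 from 4-parameter sigmoidal fit.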

[3] = target: human neuromedin U receptor 2 (human, UniProt Q9GZQ4 1-415); test: cell-based or functional assay
[4] = target: T1, human neuromedin U receptor 1; test: cell-based or functional assay

Chain of human NMUR2 receptor (Q9GZQ4 whole entry): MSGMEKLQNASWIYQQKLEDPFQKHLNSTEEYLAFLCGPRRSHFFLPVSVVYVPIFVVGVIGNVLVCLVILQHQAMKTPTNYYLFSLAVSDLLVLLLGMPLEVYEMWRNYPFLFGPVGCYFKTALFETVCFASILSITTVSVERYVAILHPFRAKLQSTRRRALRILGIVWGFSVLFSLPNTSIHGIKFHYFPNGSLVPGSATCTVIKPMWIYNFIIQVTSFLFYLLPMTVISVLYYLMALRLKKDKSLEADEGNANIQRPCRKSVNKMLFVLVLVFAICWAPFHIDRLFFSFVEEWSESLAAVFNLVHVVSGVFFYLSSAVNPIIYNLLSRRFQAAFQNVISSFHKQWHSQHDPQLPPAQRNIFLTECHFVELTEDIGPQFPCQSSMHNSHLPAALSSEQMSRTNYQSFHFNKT
Chain of human neuromedin U receptor 2 (Q9GZQ4 whole entry): as above

Molecule	MRT [1] [h]	EC50 (hNMUR1)/EC50 (hNMUR2) [2]	EC50 (activity as measured in Example 3) [3] [pM]	EC50 (activity as measured in Example 3) [4] [pM]
CCCCCCCCCCCCCCCCCC(=O)N[C@@H](CCC(=O)N[C@@H](CCC(=O)N[C@@H](CCC(=O)N(C)CC(=O)N(C)CC(=O)N(C)CC(=O)N(C)CC(=O)N(C)CC(=O)N(C)CC(=O)N(C)CC(=O)N(C)CC(=O)N(C)CC(=O)N(C)CC(=O)N(C)CC(=O)N(C)CC(=O)N(C)CC(=O)N(C)CC(=O)N(C)CC(=O)NCCN1CCN(CC(=O)N[C@@H](Cc2ccc(O)cc2)C(=O)N[C@@H](Cc2ccccc2)C(=O)N(C)[C@@H](CC(C)C)C(=O)N[C@@H](CCCC)C(=O)N[C@@H](CCCNC(=N)N)C(=O)N2CCC[C@H]2C(=O)N[C@@H](CCCNC(=N)N)C(=O)NCC(N)=O)CC1)C(=O)O)C(=O)O)C(=O)O [Ref. 1, C18A-gGlu3-Sar15-AEPipAc-Tyr-Phe-NMeLeu-Nle-Arg-Pro-Arg-Gly-NH2, reference compound] (HELM PEPTIDE1{[CCCCCCCCCCCCCCCCCC(=O)[*:2]].[gGlu].[gGlu].[gGlu].[Sar].[Sar].[Sar].[Sar].[Sar].[Sar].[Sar].[Sar].[Sar].[Sar].[Sar].[Sar].[Sar].[Sar].[Sar].[O=C(CN1CCN(CCN[*:1])CC1)[*:2]].Y.F.[meL].[Nle].R.P.R.G.[am]}$$$$V2.0)	0.8	4.3	–	–
CCCC[C@H](NC(=O)[C@H](CC(C)C)N(C)C(=O)[C@H](Cc1ccccc1)NC(=O)[C@H](Cc1ccc(O)cc1)NC(=O)CN1CCN(CCNC(=O)CN(C)C(=O)CN(C)C(=O)CN(C)C(=O)CN(C)C(=O)CN(C)C(=O)CN(C)C(=O)CN(C)C(=O)CN(C)C(=O)CN(C)C(=O)CN(C)C(=O)CN(C)C(=O)CN(C)C(=O)CN(C)C(=O)CN(C)C(=O)CN(C)C(=O)CC[C@H](NC(=O)CC[C@H](NC(=O)CC[C@H](NC(=O)CCCCCCCCCCCCCCCCC(=O)O)C(=O)O)C(=O)O)C(=O)O)CC1)C(=O)N[C@@H](CCCNC(=N)N)C(=O)N1CCC[C@H]1C(=O)N[C@@H](CCCNC(=N)N)C(=O)NCC(N)=O [Ref. 2, C18DA-gGlu3-Sar15-AEPipAc-Tyr-Phe-Leu-Nle-Arg-Pro-Arg-Gly-NH2, reference compound] (HELM PEPTIDE1{[O=C(O)CCCCCCCCCCCCCCCCC(=O)[*:2]].[gGlu].[gGlu].[gGlu].[Sar].[Sar].[Sar].[Sar].[Sar].[Sar].[Sar].[Sar].[Sar].[Sar].[Sar].[Sar].[Sar].[Sar].[Sar].[O=C(CN1CCN(CCN[*:1])CC1)[*:2]].Y.F.[meL].[Nle].R.P.R.G.[am]}$$$$V2.0)	7.9	–	–	–
CCCCCCCCCCCCCCCCCCCC(=O)N[C@@H](CCC(=O)N[C@@H](CCC(=O)N[C@@H](CCC(=O)N(C)CC(=O)N(C)CC(=O)N(C)CC(=O)N(C)CC(=O)N(C)CC(=O)N(C)CC(=O)N(C)CC(=O)N(C)CC(=O)N(C)CC(=O)N(C)CC(=O)N(C)CC(=O)N(C)CC(=O)N(C)CC(=O)N(C)CC(=O)N(C)CC(=O)NCCN1CCN(CC(=O)N[C@@H](Cc2ccc(O)cc2)C(=O)N[C@@H](Cc2ccccc2)C(=O)N(C)[C@@H](CC(C)C)C(=O)N[C@@H](CCCC)C(=O)N[C@@H](CCCNC(=N)N)C(=O)N2CCC[C@H]2C(=O)N[C@@H](CCCNC(=N)N)C(=O)NCC(N)=O)CC1)C(=O)O)C(=O)O)C(=O)O [Ref. 3, C20A-gGlu3-Sar15-AEPipAc-Tyr-Phe-NMeLeu-Nle-Orn-Pro-Arg-Gly-NH2, reference compound] (HELM PEPTIDE1{[CCCCCCCCCCCCCCCCCCCC(=O)[*:2]].[gGlu].[gGlu].[gGlu].[Sar].[Sar].[Sar].[Sar].[Sar].[Sar].[Sar].[Sar].[Sar].[Sar].[Sar].[Sar].[Sar].[Sar].[Sar].[O=C(CN1CCN(CCN[*:1])CC1)[*:2]].Y.F.[meL].[Nle].R.P.R.G.[am]}$$$$V2.0)	1.7	6.1	–	–
CCCC[C@H](NC(=O)[C@H](CC(C)C)N(C)C(=O)[C@H](Cc1ccccc1)NC(=O)[C@H](Cc1ccc(O)cc1)NC(=O)CN1CCN(CCNC(=O)CN(C)C(=O)CN(C)C(=O)CN(C)C(=O)CN(C)C(=O)CN(C)C(=O)CN(C)C(=O)CN(C)C(=O)CN(C)C(=O)CN(C)C(=O)CN(C)C(=O)CN(C)C(=O)CN(C)C(=O)CN(C)C(=O)CN(C)C(=O)CN(C)C(=O)CC[C@H](NC(=O)CC[C@H](NC(=O)CC[C@H](NC(=O)CCCCCCCCCCCCCCCCCCC(=O)O)C(=O)O)C(=O)O)C(=O)O)CC1)C(=O)N[C@@H](CCCNC(=N)N)C(=O)N1CCC[C@H]1C(=O)N[C@@H](CCCNC(=N)N)C(=O)NCC(N)=O [Ref. 4, C20DA-gGlu3-Sar15-AEPipAc-Tyr-Phe-Leu-Nle-Orn-Pro-Arg-Gly-NH2, reference compound] (HELM PEPTIDE1{[O=C(O)CCCCCCCCCCCCCCCCCCC(=O)[*:2]].[gGlu].[gGlu].[gGlu].[Sar].[Sar].[Sar].[Sar].[Sar].[Sar].[Sar].[Sar].[Sar].[Sar].[Sar].[Sar].[Sar].[Sar].[Sar].[O=C(CN1CCN(CCN[*:1])CC1)[*:2]].Y.F.[meL].[Nle].R.P.R.G.[am]}$$$$V2.0)	22.5	25.0	–	–
CCCCCCCCCCCCCCCCCC(=O)N[C@@H](CCC(=O)N[C@@H](CCC(=O)N[C@@H](CCC(=O)N(C)CC(=O)C(=O)N[C@@H](CCC(=O)N(C)CC(=O)N(C)CC(=O)N(C)CC(=O)N(C)CC(=O)N(C)CC(=O)N(C)CC(=O)N(C)CC(=O)N(C)CC(=O)N(C)CC(=O)NCCN1CCN(CC(=O)N[C@@H](Cc2ccc(O)cc2)C(=O)N[C@@H](Cc2ccccc2)C(=O)N(C)[C@@H](CC(C)C)C(=O)N[C@@H](CCCC)C(=O)N[C@@H](CCCN)C(=O)N2CCC[C@H]2C(=O)N[C@@H](CCCNC(=N)N)C(=O)NCC(N)=O)CC1)C(=O)O)C(=O)O)C(=O)O)C(=O)O [Ref. 5, C18A-gGlu3-Sar12-AEPipAc-Tyr-Phe-NMeLeu-Nle-Orn-Pro-Arg-Gly-NH2, reference compound] ({Stearoyl-γGlu-γGlu-γGlu}-[X1][γGlu][Sar][Sar][Sar][Sar][Sar][Sar][Sar][Sar][Sar][Pipz(1-CH2CO,4-CH2CH2NH)]YF[NMeL][Nle][Orn]PRG-NH2)	2.2	7.9	–	–
CCCC[C@H](NC(=O)[C@H](CC(C)C)NC(=O)[C@H](Cc1ccccc1)NC(=O)[C@H](Cc1ccc(O)cc1)NC(=O)CN1CCN(CCNC(=O)CN(C)C(=O)CN(C)C(=O)CN(C)C(=O)CN(C)C(=O)CN(C)C(=O)CN(C)C(=O)CN(C)C(=O)CN(C)C(=O)CN(C)C(=O)CC[C@H](NC(=O)C(=O)CN(C)C(=O)CC[C@H](NC(=O)CC[C@H](NC(=O)CC[C@H](NC(=O)CCCCCCCCCCCCCCCCC(=O)O)C(=O)O)C(=O)O)C(=O)O)C(=O)O)CC1)C(=O)N[C@@H](CCCN)C(=O)N1CCC[C@H]1C(=O)N[C@@H](CCCNC(=N)N)C(=O)NCC(N)=O [Ref. 6, C18DA-gGlu3-Sar12-AEPipAc-Tyr-Phe-Leu-Nle-Orn-Pro-Arg-Gly-NH2, reference compound]	4.2	32.4	–	–
B1	–	–	46	200

Source: patent US20240279278A1, “NMU RECEPTOR 2 AGONISTS” (Boehringer Ingelheim International GmbH, priority 2023, published 2024)
